Assay: Intraperitoneal pharmacokinetics and brain distribution assay
Type: in vivo, male Sprague Dawley rats
Conditions: single i.p. dose 1 mg/kg
Protocol: Healthy male Sprague Dawley rats (8-12 weeks old) weighing between 200 to 250 g were procured from Tina Labs, Hyderabad, India. Three rats were housed in each cage. Temperature and humidity were maintained at 22±3° C. and 40-70%, respectively and illumination was controlled to give a sequence of 12 hr light and 12 hr dark cycle. Temperature and humidity were recorded by auto-controlled data logger system. All the animals were provided laboratory rodent diet (Vetcare India Pvt. Ltd, Bengaluru) ad libitum. Reverse osmosis water treated with ultraviolet light was provided ad libitum.
Twenty one male Sprague Dawley rats were intraperitoneally administered with a solution formulation of the compound of Example 2 prepared in 10% DMSO, 10% Tween 80, and 80% normal saline. The blood samples were collected from a set of three rats at each time point in labeled micro centrifuge tube containing K2EDTA solution as anticoagulant. Plasma samples were separated by centrifugation of whole blood and stored at below −70° C. until bioanalysis. After collection of blood samples at each time point animals, were humanely euthanized by CO2 and the brain was collected. Brain samples were homogenized using ice-cold phosphate buffer saline (pH=7.4) and homogenates were stored at below −70° C. until analysis. Total homogenate volume was three times the brain weight. All samples were processed for analysis by protein precipitation using acetonitrile and analyzed with fit-for-purpose LC-MS/MS method (Lower Limits of Quantitation (LLOQ)=2.01 ng/mL in plasma and 1.01 ng/mL in brain). Pharmacokinetic parameters were calculated using the non-compartmental analysis tool of Phoenix WinNonlin® (Version 6.3).
The intraperitoneal solution formulation concentration was 0.1 mg/mL. The weighed quantity (7.02 mg) of (E)-3-(4-((((3r,5r,7r)-adamantan-1-ylmethyl)(methyl)amino)methyl)phenyl)-N-(2-aminophenyl)acrylamide was added in a labeled bottle. DMSO (7.02 mL) was added to dissolve the compound, followed by addition of Tween 80 (7.02 mL) and the solution was mixed by vortexing. Next, normal saline was added (56.16 mL) and the resulting solution was mixed by vortexing. The solution formulation was sonicated for 2 minutes to obtain a clear and transparent solution.
The blood samples were collected from set of three rats at each time point in labeled micro centrifuge tube containing K2EDTA solution as anticoagulant at time points of 0.08, 0.5, 1, 2, 4, 6, 8 & 24 hours. […]
Concentrations of the compound of Example 2 in rat plasma and brain samples were analyzed with fit-for-purpose by LC-MS/MS method. […] Following centrifugation, 100 µL of clear supernatant was transferred a 96-well plate and analyzed using LC-MS/MS. […]

- Kp (male, Sprague Dawley, rat, brain/plasma, ip, read-out: Brain-to-plasma exposure ratio): 20.6
- Tmax (male, Sprague Dawley, rat, plasma, ip): 30 min
- brain concentrations quantifiable up to (brain (2 animals), LLOQ 1.01 ng/mL): ≤ 24 h
- plasma concentrations quantifiable up to (plasma (2 animals), LLOQ 2.01 ng/mL): up to 8 h
Structure (SMILES): CN(Cc1ccc(/C=C/C(=O)Nc2ccccc2N)cc1)CC12CC3CC(CC(C3)C1)C2 [Example 2, (E)-3-(4-((((3r,5r,7r)-adamantan-1-ylmethyl)(methyl)amino)methyl)phenyl)-N-(2-aminophenyl)acrylamide]

From patent US20170349540A1, “HISTONE DEACETYLASE INHIBITORS” (The General Hospital Corporation, priority 2014, published 2017)
